Results from patent US6479251B1, “Colorimetric test for agents that induce mitochondrial dysfunction” (priority 1999, dated 2002).

Legend:
Type in all cases: cell-based
[1] = system: S. cerevisiae strain YPH499; experiment: Colorimetric test: red to white colony colour change on YPD agar after treatment
Description: (§1) FIGS. 1A and 1B show visual color identification of mitochondrial dysfunction. The wild type S. cerevisiae YPH499 was gown in YPD (1% yeast extract, 2% bactopeptone and 2% dextrose) to log phase at 30° C. The log phase culture was centrifuged, resuspended in water containing adriamycin (150 μg/ml) for one hour. Appropriate dilutions of the culture were plated on YPD agar and incubated at 30° C. for 3-4 days. […] FIG. 1B: white colonies from treated cells in FIG. 1A wee replicated on to agar medium containing 2% dextrose (left) and 2% glycerol (right).
The wild type S. cerevisiae YPH499 was grown in YPD to log phase at 30° C. The culture was centrifuged, resuspended in water containing various concentrations of adriamycin as indicated for one hour. Appropriate dilutions of the culture were plated on YPD agar and incubated at 30° C. Colonies were counted after 3-4 days. Values presented are the average of four determinants.
FIGS. 5A, 5B, and 5C show the percentage of white colonies produced after treatment with physical or chemical agents. Exponentially growing cells were treated with various doses of UV (FIG. 5A) or various lengths of time (MMS (FIG. 5B) and H2O2 (FIG. 5C)). For UV treatment appropriate dilutions of culture were plated on YPD agar and exposed to UV using STRATALINKER (Stratagene). For MMS and H2O2 treatments, cells were exposed in liquid YPD medium.
(§2) The yeast S. cerevisiae strain YPH499 (a ura3-52, lys2-801, ade2-101, trpl-63, his3-200, leul-1) was grown in YPD to log phase. Cell were then harvested and suspended in water containing various concentration of adriamycin for one hour. In order to test whether white colonies were defective in mitochondrial function, we transferred the colonies to an agar media containing glycerol (nonfermentable carbon source). Utilization of glycerol by an eukaryotic cell requires intact mitochondrial function (2). […] The number of surviving colonies that were white reached about 30% at 150 μglml concentration.

[2] = system: S. cerevisiae strain YPH499; experiment: Growth of white colonies on glycerol (nonfermentable carbon source) agar
Description: as §1, §2

[3] = system: mitDNA of S. cerevisiae white colonies
Description: FIGS. 3A-3D show mitochondrial genome changes induced by adriamycin. Various white S. cerevisiae colonies produced after treatment with adriamycin were grown to log phase and stained with DAPI, which stains DNA. FIG. 3A: wild type; FIG. 3B: a Rho^0 strain (devoid of mitochondrial genome); FIG. 3C: a representative white cell lacking mitochondrial genome; and FIG. 3D: a representative cell containing mutant mitochondrial DNA.
White S. cerevisiae colonies produced after treatment with physical or chemical agents were grown to log phase and stained with DAPI. FIG. 6A: Wild type; FIG. 6B: A Rho^0 strain; FIG. 6C: adriamycin; FIG. 6D: hydrogen peroxide; FIG. 6E: UV; FIG. 6F: Methylmethane sulfonate. For FIGS. 6C-F, the cells on the right contains mutant mitDNA and the cell on the left lacks a mitochondrial genome.
DNA was stained with a fluorescent dye, 4,6-diamidino-2-phenylindole (DAPI)(2). […] In this study, a known yeast strain lacking mitDNA (Rho^0) served as a negative control (FIG. 3B, only nuclear DNA is stained).

[4] = system: S. cerevisiae diploid cells (white colonies x Rho0); experiment: Mating of haploid white colonies with Rho0 strain YPH 500, growth of diploids on glycerol medium; conditions: a total of 143 diploid cells from white colonies after adriamycin treatment mated with Rho0 (FIG. 4)
Description: FIGS. 4A and 4B show growth comparison of haploid and diploid S. cerevisiae cells. FIG. 4A: Various white colonies produced after treatment with adriamycin were streaked on YP glycerol plates. FIG. 4B: The same white colonies were mated with an opposite mating type strain of yeast lacking mitochondrial DNA on YPD plates. The diploid yeast strains were tested for growth on YP glycerol medium.
The genetic approach employed involved mating haploid white colonies generated after adriamycin treatment (shown in FIG. 2, “a” mating type) with a haploid Rho^0 strain (of opposite mating type “α” YPH 500 (ura3-52, lys2-801, ade2-101, trpl-63, his3-200, leu2-1) lacking mitDNA (3). The diploid cells (a total of 143) were tested for growth on glycerol medium. If the white cells contained a mutation in a nuclear gene affecting the mitochondrial function, it can be expected that diploid cells will grow on glycerol because a nuclear defect can be complemented with Rho^0 (because it contains intact nuclear DNA but lacks mitDNA). […] Together, these studies indicate that adriamycin preferentially damages mitDNA. This preferential damage by adriamycin can result either in complete loss of mitDNA (due to severe damage) and/or mutations in mitDNA (due to minor damage FIG. 3).

Row | SMILES | increase in white colonies [1] | growth of white colonies on glycerol [2] | microscopic and genetic tests of white colonies (mitDNA status) ([3]; white colonies obtained after treatment with physical or chemical agents (FIG. 6)) | number of surviving colonies that were white ([1]; adriamycin 150 μglml in water for one hour, plated on YPD agar, 30° C., 3-4 days) | white colonies versus dose ([1]; various concentrations of adriamycin in water for one hour (FIG. 2)) | growth of randomly chosen white colonies on glycerol plates ([2]; white colonies obtained after adriamycin treatment (FIG. 1B)) | DAPI DNA staining of white colonies (mitDNA present or lost) ([3]; white colonies obtained after adriamycin treatment (FIG. 3)) | growth of diploid cells on glycerol medium [4]
1 | COS(C)(=O)=O [MMS, methyl methane sulphonate] | did | do not grow on glycerol | either contained mutant mitDNA or lacked mitDNA at all | – | – | – | – | –
2 | OO [H2O2, hydrogen peroxide] | did not result in increased white colonies | – | – | – | – | – | – | –
3 | COc1cccc2c1C(=O)c1c(O)c3c(c(O)c1C2=O)C[C@@](O)(C(=O)CO)C[C@@H]3O[C@H]1C[C@H](N)[C@H](O)[C@H](C)O1 [adriamycin] | – | – | – | about 30% | increase number of white colonies with increasing dose | none were able to grow | two types of DNA staining | none grew on glycerol medium
